The NIST ThermoML archive (doi:10.1021/je900653p)
± gives the expanded uncertainty stated by the source.

Settings: Crystal

Row | Normal melting temperature | Structure (SMILES)
1 | -61.5 ± 0.8 °C | C=C1CC[C@H]2C[C@@H]1C2(C)C [(1S,5S)-6,6-dimethyl-2-methylenebicyclo[3.1.1]heptane]
2 | 1.2 ± 1.2 °C | CC12CCC(CC1)C(C)(C)O2 [1,3,3-trimethyl-2-oxabicyclo[2.2.2]octane]
3 | -68.5 ± 0.8 °C | Cc1ccc(C(C)C)cc1 [1-(1-methylethyl)-4-methylbenzene]
4 | 51.1 ± 0.8 °C | C=C1C2CCC(C2)C1(C)C (centres undefined) [2,2-dimethyl-3-methylenebicyclo[2.2.1]heptane]
